# Key:
# adults with PTSD = assay: Exploratory behavioral analyses 1: effect relative to placebo on PTSD symptoms; format: in vivo, human
# Experimental: (a). To evaluate the effect of daily 450 mg of 3-{[5-(2-Fluorophenyl)pyridin-2-yl]oxy}-N-(pyridazin-3-yl)azetidine-1-carboxamide relative to placebo in mitigating PTSD symptoms in adults with PTSD. Patient will be receiving a 450 mg dose of the study agent.
# (b). To evaluate the effect of 450 mg of the study drug relative to placebo in mitigating PTSD symptoms that comprise a contemporary, five-factor phenotypic model of this disorder, as well as secondary “intermediate phenotype” measures of anxiety sensitivity and somatic anxiety.
# FAAH = assay: Changes in plasma fatty acid amide (FAA) levels in response to the FAAH inhibitor; format: in vivo, human; conditions: 450 mg/day, plasma drug level 200 nm/ml to about 600 ng/ml, predicted maximal change
# Experimental: In other embodiments, upon achieving trough steady state plasma, plasma FAA levels will be minimal. Conversely, at the 450 mg/day dose, changes in plasma FAA levels in response to 3-{[5-(2-Fluorophenyl)pyridin-2-yl]oxy}-N-(pyridazin-3-yl)azetidine-1-carboxamide ranging from 200 nm/ml to about 600 ng/ml are predicted to be maximal; in the order of 3, 4, 8 and 5 ng/mL for AEA, LEA, OEA and PEA, respectively.
smiles,measurement,setting,value
O=C(Nc1cccnn1)N1CC(Oc2ccc(-c3ccccc3F)cn2)C1 [3-{[5-(2-Fluorophenyl)pyridin-2-yl]oxy}-N-(pyridazin-3-yl)azetidine-1-carboxamide],"PTSD symptoms of the five-factor phenotypic model, anxiety sensitivity and somatic anxiety, relative to placebo",adults with PTSD; 450 mg daily dose,most pronounced effect on reducing anxious arousal
same,overall severity of PTSD symptoms relative to placebo,adults with PTSD; daily 450 mg,reduction in overall severity of PTSD symptoms
same,change in plasma FAA level: AEA,FAAH,~3 ng/mL
same,change in plasma FAA level: LEA,FAAH,~4 ng/mL
same,change in plasma FAA level: OEA,FAAH,~8 ng/mL
same,change in plasma FAA level: PEA,FAAH,~5 ng/mL
